In US5349127A, “Expression of herbicide metabolizing cytochromes P450” (priority 1992, dated 1994):

Legend:
[1] = tested on: S. lividans pCAO200; experiment: Sulfonylurea metabolism by washed cell suspension (Examples 6-9); type: in vitro ADME, Streptomyces lividans; conditions: substrate 10004
[2] = tested on: S. lividans pCAO200SU1-FeS-B#9; experiment: as above; type: in vitro ADME, Streptomyces lividans; conditions: substrate 10004
Procedure: (§1) Herbicides and their metabolites are measured by HPLC as described by Romesser et al., BBRC 140: 650-659 (1986), herein incorporated by reference, except that 0.1% H3 PO4 is used in both solvents. Chromatographic identity and quantitation of the herbicides and their resulting metabolites is determined by comparing them chromatographically with authentic standard compounds. Identity of the resulting metabolites is also confirmed by UV spectroscopy.
(§2) A 100 ml culture of S. griseolus ATCC 11796 in sporulation broth and a 50 ml culture of S. lividans transformed with pCAO400 in YEME broth were prepared and incubated for 24 hours as described. At that time, the S. griseolus culture was split into two 50 ml aliquots into two separate flasks and 25 ml of fresh sporulation broth was added to each and 9 mg of […] was added to one of these cultures to induce cytochrome P450SU1 expression. Fresh YEME broth (25 ml) was added to the S. lividans culture. After an additional 6 hours growth at 30° C., the cells in each culture were harvested as described above, washed twice with MOPS (50 mM, pH 7.2) and recentrifuged. The cell pellets were resuspended in four cell volumes of MOPS (50 mM, pH 7.2) containing 0.2% glucose and about 100 μg/ml of 10004. These cell suspensions were incubated at 30° C. with shaking and aliqouts were taken at 2 and 5.5 hours. The supernatant of each aliquot was analyzed by HPLC and the concentrations of the sulfonylurea compound 10004 and its metabolite 10005 were determined.
S. lividans transformed respectively with pCAO200SU1-FeS-B#9, pCAO200SU#112and pCAO200 were cultured for 36 hours in 400 ml of YEME broth at 30° C. S. griseolus ATCC 11796 was similarly cultured in 400 ml of sporulation broth. Six hours before harvesting the cells, 150 ml of fresh YEME broth was added to the S. lividans cells, and the S. griseolus cells were split into two 200 ml cultures with 100 ml of fresh sporulation broth added to each. 10001 (36 mg) was added to one of the two S. griseolus cultures to induce cytochrome P450SU1. […]

[3] = tested on: S. lividans transformed with pCAO400; experiment: Sulfonylurea metabolism by washed cell suspension (Example 5); type: in vitro ADME, Streptomyces lividans; conditions: substrate 10004 about 100 μg/ml
Procedure: as §1, §2

[4] = tested on: S. lividans pCAO200SU1#12; experiment: Sulfonylurea metabolism by washed cell suspension (Examples 6-9); type: in vitro ADME, Streptomyces lividans; conditions: substrate 10004
[5] = tested on: S. griseolus ATCC 11796; experiment: Percent conversion of herbicides by cultures (Example 16); type: in vitro ADME, Streptomyces griseolus; conditions: 3.0 mg herbicide in 25 ml broth; 24 hours
Procedure: (§3) Separate cultures (50 ml) inoculated with S. lividans C37, S. lividans transformed with pCAO200SU1-FeS-B#9, S. griseolus ATCC11796, S. griseolus PH2003 transformed with pIJ425, or S. ariseolus PH2003 transformed with pCS325 were cultured in sporulation broth for 18 hours at 30° C. with shaking. Each culture was then resuspended in 25 ml fresh sporulation broth and 3.0 mg herbicide added. In the case of cultures of S. griseolus ATCC11796, a second culture containing herbicide and 3.0 mg 10001 was also prepared. Each culture was reincubated for 24 hours, then an aliquot of the medium was withdrawn and analyzed by HPLC. The percent conversion of herbicide was determined.

[6] = tested on: S. griseolus ATCC 11796, 10001 added; experiment: as above; type: in vitro ADME, Streptomyces griseolus; conditions: 3.0 mg herbicide and 3.0 mg 10001 in 25 ml broth; 24 hours
Procedure: as §3

[7] = tested on: S. griseolus PH2003 pIJ425; experiment: as above; type: in vitro ADME, Streptomyces griseolus; conditions: 3.0 mg herbicide in 25 ml broth; 24 hours
Procedure: as §3

[8] = tested on: S. griseolus PH2003 pCS325; experiment: as above; type: in vitro ADME, Streptomyces griseolus; conditions: for Percent Conversion: 3.0 mg herbicide in 25 ml broth, 24 hours; for metabolism by bacteria containing constitutively expressed P450SU2: summary of Table 13
Procedure: as §3

[9] = tested on: S. lividans pCAO200SU1-FeS-B#9; experiment: as above; type: in vitro ADME, Streptomyces lividans; conditions: for Percent Conversion: 3.0 mg herbicide in 25 ml broth, 24 hours; for metabolism by bacteria containing constitutively expressed P450SU1: summary of Table 13
Procedure: as §3

[10] = tested on: S. lividans C37; experiment: as above; type: in vitro ADME, Streptomyces lividans; conditions: 3.0 mg herbicide in 25 ml broth; 24 hours
Procedure: as §3

[11] = tested on: S. griseolus ATCC11796; experiment: Metabolism of 10015 analogs to 10014 (Example 17); type: in vitro ADME, Streptomyces griseolus
Procedure: Cultures of S. griseolus ATCC11796 were cultivated in sporulation-broth (50ml) at 30° C. with shaking for 17 hours. Each culture was then resuspended in 25 ml fresh sporulation broth, 3.0 mg sulfonylurea was added, and the culture reincubated for 4 days. Aliquots of the medium were then analyzed by HPLC. Formation of 10014 was measured based on similarity of retention time and UV spectrum of the test metabolite to that formed by metabolism of 10015.

[12] = target: T1, purified cytochrome p450SU1 (Streptomyces griseolus, UniProt P18326); experiment: Rate of metabolism of 10015 to 10014 supported by FeS proteins (Example 27); type: biochemical; conditions: 0.2 mM 10015, 15 min
T1 construct: Purified, native cytochromes P450SU1 and P450SU2; endogenous in cells; host or cells: sulfonylurea-induced Streptomyces griseolus cells
T1 sequence (P18326 whole entry, looked up): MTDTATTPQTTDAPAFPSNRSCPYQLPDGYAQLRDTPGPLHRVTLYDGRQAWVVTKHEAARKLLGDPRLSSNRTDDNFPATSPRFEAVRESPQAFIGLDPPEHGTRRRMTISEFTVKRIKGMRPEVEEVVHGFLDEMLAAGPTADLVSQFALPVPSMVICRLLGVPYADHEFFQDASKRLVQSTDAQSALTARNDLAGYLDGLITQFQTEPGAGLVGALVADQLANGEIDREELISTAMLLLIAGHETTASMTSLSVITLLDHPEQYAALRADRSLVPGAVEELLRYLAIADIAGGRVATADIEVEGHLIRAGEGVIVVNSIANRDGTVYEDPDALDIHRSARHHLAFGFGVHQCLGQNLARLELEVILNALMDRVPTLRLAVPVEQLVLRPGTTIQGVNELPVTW
Procedure: The purpose of this example was to define the combination of cytochrome p450SU1 and other proteins which results in optimal metabolism of sulfonylureas, based on conclusions from in vitro experiments. In these experiments, the rate of metabolism of 10015 to 10014, mediated by purified cytochrome p450SU1, was tested to find which FeS protein functions as the best direct electron donor.
The reaction was initiated by-the addition of NADPH to a final concentration of 0.03 mM. After 15 min the reaction was terminated by the addition of 0.25 ml H2 O:acetonitrile:H3 PO4^- (80:19:1). After filtering this mixture through a 0.2 μm filter, the amount of metabolite (10014) formed was analyzed by HPLC.

In the case of `CCCCN1Cc2cccc(S(=O)(=O)NC(=O)Nc3nc(OC)cc(OC)n3)c2S1(=O)=O` [compound 10004], the concentration in supernatant ([1]; 2 h) is reported as 97 µM, the concentration in supernatant ([1]; 4 h) is reported as 92 µM and the concentration in supernatant ([1]; 6 h) is reported as 85 µM. For the same compound, the concentration in supernatant ([2]; 2 h) was 2 µM, the concentration in supernatant ([2]; 4 h) was 1 µM and the concentration in supernatant ([2]; 6 h) was 2 µM. The concentration in supernatant ([3]; 2 h) was 72 µM, the concentration in supernatant ([3]; 5.5 h) was 0 µM and the concentration in supernatant ([4]; 2 h) was 81 µM. For the same compound, the concentration in supernatant ([4]; 4 h) was 29 µM and the concentration in supernatant ([4]; 6 h) was 0 µM.

In the case of `COc1cc(OC)nc(NC(=O)NS(=O)(=O)c2cccc3c2S(=O)(=O)N(CCC(C)O)C3)n1` (stereo not drawn) [compound 10005, 2-(3-hydroxybutyl)-2,3-dihydro-N-[(4,6-dimethoxypyrimidin-2-yl)aminocarbonyl]1,2-benzisothiazole-7-sulfonamide-1,1-dioxide], the concentration in supernatant ([1]; 2 h) is reported as 22 µM, the concentration in supernatant ([1]; 4 h) is reported as 26 µM and the concentration in supernatant ([1]; 6 h) is reported as 30 µM. It also gave a concentration in supernatant ([2]; 2 h) of 35 µM, a concentration in supernatant ([2]; 4 h) of 100 µM and a concentration in supernatant ([2]; 6 h) of 100 µM. It also gave a concentration in supernatant ([3]; 2 h) of 67 µM, a concentration in supernatant ([3]; 5.5 h) of 125 µM and a concentration in supernatant ([4]; 2 h) of 43 µM. It also gave a concentration in supernatant ([4]; 4 h) of 84 µM and a concentration in supernatant ([4]; 6 h) of 109 µM.

In the case of `CN(C)c1nc(=O)n(C2CCCCC2)c(=O)n1C` [compound 10017, 3-cyclohexyl-1-methyl-6-dimethylamino-S-triazine-2,4(1H,3H)dione], the “Percent Conversion” value [5] is reported as 1%, the “Percent Conversion” value [6] is reported as 35% and the “Percent Conversion” value [7] is reported as 6%. The “Percent Conversion” value [8] was 98%, the “metabolism by bacteria containing constitutively expressed P450SU2” value (from here on “metabolism … expressed P450SU2”) [8] was “metabolized” and the “Percent Conversion” value [9] was 47%. For the same compound, the “metabolism by bacteria containing constitutively expressed P450SU1” value (shortened to “metabolism … expressed P450SU1”) [9] was “metabolized” and the “Percent Conversion” value [10] was 19%.

For `CSc1nnc(C(C)(C)C)c(=O)n1N` [compound 10018, 4-amino-6-tert-butyl-3-(methylthio)-AS-triazin-5(4H)-one], the “Percent Conversion” value [7] was 10%, the “Percent Conversion” value [8] was 72% and the “metabolism … expressed P450SU2” value [8] was “metabolized”. For the same compound, the “Percent Conversion” value [9] was 56%, the “metabolism … expressed P450SU1” value [9] was “metabolized” and the “Percent Conversion” value [10] was 0%.

In the case of `Cc1ccc(NC(=O)N(C)C)cc1Cl` [compound 10019, 3-(3-chloro-p-tolyl)-1,1-dimethylurea], the “Percent Conversion” value [5] is reported as 0%, the “Percent Conversion” value [6] is reported as 80% and the “Percent Conversion” value [7] is reported as 0%. For the same compound, the “Percent Conversion” value [8] was 9%, the “Percent Conversion” value [9] was 35% and the “metabolism … expressed P450SU1” value [9] was “metabolized”. The “Percent Conversion” value [10] was 0%.

With `CCNc1nc(Cl)nc(NC(C)(C)C#N)n1` [compound 10021, 2-[4-chloro-6-(ethylamino-1,3,5-triazin-2-yl)amino]-2-methylpropanenitrile] the “Percent Conversion” value [7] was 7%, the “Percent Conversion” value [8] was 93% and the “metabolism … expressed P450SU2” value [8] was “metabolized”. For the same compound, the “Percent Conversion” value [9] was 23% and the “Percent Conversion” value [10] was 0%.

In the case of `N#Cc1cc(Br)c(O)c(Br)c1` [compound 10023, 3,5-dibromo-4-hydroxybenzonitrile], the “Percent Conversion” value [5] is reported as 0%, the “Percent Conversion” value [6] is reported as 0% and the “Percent Conversion” value [9] is reported as 0%. For the same compound, the “Percent Conversion” value [10] was 0%.

With `C=CCN1Cc2cccc(S(=O)(=O)NC(=O)Nc3nc(OC)cc(OC)n3)c2S1(=O)=O` [compound 10028, N-[(4,6-dimethoxypyrimidin-2-yl)aminocarbonyl]-2,3-dihydro-2-(2-propenyl)-1,2-benzisothiazole-7-sulfonamide-1,1-dioxide] the “metabolism by P450SU1 to phytotoxic 10014” value [11] was “metabolized”.

With `COc1cc(OC)nc(NC(=O)NS(=O)(=O)c2cccc3c2S(=O)(=O)N(C[Si](C)(C)C)C3)n1` [compound 10032, N-[(4,6-dimethoxypyrimidin-2-yl)aminocarbonyl]-2,3-dihydro-2-(trimethylsilylmethyl)-1,2-benzisothiazole-7-sulfonamide-1,1-dioxide] the “% Conversion to 10014” value ([11]; 3.0 mg sulfonylurea in 25 ml broth, 4 days) was 0%.

For “spinach Fd: spinach ferredoxin (an FeS protein)”, the “Rate of 10015 metabolism to 10014” value [12] was 0.4 (nmol 10014)·(nmol p450)-1·(mi, the “Rate of 10015 metabolism to 10014” value ([12]; 4 mM FeS addition, FNR 0.2 mM) was 0.2 (nmol 10014)·(nmol p450)-1·(mi and the “Rate of 10015 metabolism to 10014” value ([12]; 4 mM FeS addition, FNR 2.0 mM) was 0.2 (nmol 10014)·(nmol p450)-1·(mi.
